Consider 25 compounds from ChEMBL document CHEMBL1201862, “PubChem BioAssay data set” (2004).

Test systems include DLD-1; DMS-114; DMS-273; HOP-18; KM-20L2; LXFL 529; M19-MEL; RXF 631; XF498.
Common to all, as to test: NCI anticancer screen, dose series, 48 h

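Exposure lasted 48 hours, with cells grown in 96-well plates and compounds tested at five concentrations. The concentration for 50% growth inhibition is given as GI50.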 The source made the active and inactive calls. No stated cut-off is given here; in the data, active = GI50 up to about 1.1 µM and inactive = higher.

In the case of `O=S1(=O)[C@H](c2ccccc2)c2c(-c3ccccc3)sc(-c3ccccc3)c2[C@@H]1c1ccccc1`, the GI50 was > 100 µM (inactive) with DLD-1; > 100 µM (inactive) in the assay on DMS-114; > 100 µM (inactive) with DMS-273; 77.1 µM (inactive) in the assay with HOP-18; > 100 µM (inactive) in the assay on KM-20L2; 88.1 µM (inactive) with LXFL 529. For the same compound, the GI50 in the assay with M19-MEL was > 100 µM (inactive).
On to `O=Cc1c(O)c(C(=O)Nc2ccc3[nH]c(=O)[nH]c3c2)cc2ccccc12`, for which the GI50 with DLD-1, in the assay on DMS-114, in the assay with DMS-273, with HOP-18, in the assay on KM-20L2 and with LXFL 529 was > 100 µM (inactive) throughout. Further, the GI50 with M19-MEL and in the assay with RXF 631 was > 100 µM (inactive) each time.
In the case of `O=C(CSC(=S)N1CCCCC1)Nc1nc2c(s1)CCCC2`, the GI50 was 26.9 µM (inactive) with DLD-1; 53.2 µM (inactive) in the assay with DMS-114; 49.4 µM (inactive) with DMS-273; 46 µM (inactive) with KM-20L2; 32.1 µM (inactive) in the assay with LXFL 529; 32.9 µM (inactive) in the assay on M19-MEL. In addition, in the assay on XF498, the GI50 was 19.3 µM (inactive).
For `C=C(C)C12CC3CC(/C(=N/O)C(C1)/C3=N\O)[C@@]2(C)O` (stereo partly drawn), the GI50 in the assay with DLD-1, with DMS-114, with DMS-273, in the assay with KM-20L2, with LXFL 529 and with M19-MEL was > 100 µM (inactive) throughout.
With `C=C1C(=O)OC2CC3(C)OC3CC/C(C)=C/C(OC(C)=O)C12` (stereo not drawn), the GI50 with DLD-1 was 2.75 µM (inactive); in the assay on DMS-114 it was 7.4 µM (inactive); in the assay with DMS-273, 14.9 µM (inactive); in the assay with HOP-18 it was 10.4 µM (inactive); in the assay with KM-20L2 it was 6.55 µM (inactive); in the assay on LXFL 529 it was 2.14 µM (inactive). Also, the GI50 in the assay with M19-MEL was 8.04 µM (inactive); in the assay with XF498, 2 µM (inactive).
With `COc1ccc(-c2oc(/C=N/NC(N)=S)c([N+](=O)[O-])c2-c2ccc(OC)c(OC)c2)cc1OC`, the GI50 in the assay on DLD-1 was 24.3 µM (inactive); in the assay with DMS-114, 19.4 µM (inactive); with KM-20L2, 18.2 µM (inactive); in the assay on LXFL 529, 20.3 µM (inactive); in the assay on M19-MEL, 24.2 µM (inactive); in the assay with RXF 631, 30.4 µM (inactive). Also, the GI50 in the assay with XF498 is 26.7 µM (inactive).
Consider `COc1cc(C(=O)C/C(CCCC(=O)Nc2ccccc2[N+](=O)[O-])=N/NC(=O)c2cc3ccccc3cc2O)ccc1O`, for which the GI50 in the assay with DLD-1 was 36.7 µM (inactive); with DMS-273 it was 15.6 µM (inactive); in the assay with HOP-18, 6.24 µM (inactive); in the assay with KM-20L2, 27.4 µM (inactive); in the assay with RXF 631, > 71.4 µM (inactive); in the assay on XF498, > 100 µM (inactive).
With `O=C(c1ccc(Cl)cc1)c1ccc(OCCSCCCCCCCCCCSCCOc2ccc(C(=O)c3ccc(Cl)cc3)cc2)cc1`, the GI50 in the assay with DLD-1, in the assay on DMS-273, in the assay on KM-20L2, in the assay with M19-MEL and in the assay with RXF 631 was > 100 µM (inactive) throughout.
For the compound `N=C(N)N/N=C/c1oc(-c2ccc(S(=O)(=O)O)o2)c(-c2ccc(S(=O)(=O)O)o2)c1[N+](=O)[O-]`, the GI50 with DLD-1, in the assay with DMS-114, with DMS-273, in the assay on HOP-18, with KM-20L2 and in the assay with LXFL 529 was > 100 µM (inactive) throughout. In the assay on M19-MEL, the GI50 is > 100 µM (inactive).
As for `C/C(=C\CBr)CCC(Br)C(C)(C)Cl` (stereo not drawn), the GI50 with DLD-1, with DMS-114, in the assay with DMS-273, in the assay with HOP-18, in the assay with LXFL 529 and in the assay on M19-MEL was > 100 µM (inactive) each time.
For the compound `C=C1C(=O)OC2CCCCC3OC3C12` (stereo not drawn), the GI50 with DLD-1 was 7.83 µM (inactive); in the assay on DMS-273 it was 10.3 µM (inactive); with HOP-18, 11 µM (inactive); in the assay on KM-20L2 it was 10.1 µM (inactive); with LXFL 529 it was 7.26 µM (inactive); with M19-MEL, 11.6 µM (inactive). Besides, the figures for the GI50 with RXF 631 and with XF498 were 6.19 µM (inactive) and 12 µM (inactive), respectively.
Regarding `Cc1cc(N(CCC#N)CCC#N)ccc1/C=C(\N=[N+]=[N-])C(=O)NC(=O)COc1ccccc1`, the GI50 with DLD-1, with DMS-114, with DMS-273, in the assay with HOP-18, in the assay on KM-20L2 and in the assay with LXFL 529 was > 100 µM (inactive) in each case. Further, the GI50 was > 100 µM (inactive) in the assay with RXF 631 and 34.7 µM (inactive) in the assay on XF498.
As to `COc1cccc(/C=N\NC(=O)C(C)SC(C)C(=O)N/N=C/c2cccc(OC)c2)c1` (stereo not drawn), the GI50 in the assay with DLD-1 was 58.2 µM (inactive); in the assay on DMS-114 it was 19.4 µM (inactive); in the assay with DMS-273, 33 µM (inactive); in the assay with KM-20L2 it was 47 µM (inactive); with LXFL 529 it was 33.9 µM (inactive); in the assay with M19-MEL it was > 63.4 µM (inactive). Besides, the GI50 with XF498 was 53.1 µM (inactive).
In the case of `Cc1cc(NC(=O)NC(=O)c2ccccc2N)ccc1Oc1ncc(Br)cn1`, the GI50 was < 0.0161 µM (active) with DLD-1; < 0.01 µM (active) in the assay with DMS-114; < 0.0316 µM (active) with DMS-273; 28.8 µM (inactive) in the assay on HOP-18; 0.016 µM (active) in the assay with KM-20L2; < 0.0179 µM (active) in the assay on LXFL 529. Further, the results for the GI50 in the assay on M19-MEL and with XF498 were 0.0231 µM (active) and 0.0334 µM (active), respectively.
Take `CCOC(=O)c1cccc(=O)c(C(=O)OCC)c1`: the GI50 in the assay with DLD-1 is 40 µM (inactive); with DMS-114 it was 46.8 µM (inactive); in the assay with DMS-273, 48.2 µM (inactive); with KM-20L2, 97.3 µM (inactive); in the assay on LXFL 529, 38.3 µM (inactive); in the assay on M19-MEL, 53.1 µM (inactive). The results for the GI50 in the assay with RXF 631 and in the assay with XF498 were 67 µM (inactive) and 46.1 µM (inactive), respectively.
Consider `CC(C)(C)c1cc(C#N)c2c(c1)C(=O)OC2(c1ccccc1)c1ccccc1C#N` (stereo not drawn), for which the GI50 in the assay with DLD-1, with DMS-114, in the assay on DMS-273, with HOP-18, with KM-20L2 and in the assay on LXFL 529 was > 100 µM (inactive) each time. The GI50 in the assay with M19-MEL and in the assay on XF498 was > 100 µM (inactive) each time.
Consider `COc1cc(Oc2c(O)c(C)c(OC)c(C(C)=O)c2O)c(C(C)=O)c(O)c1C`, for which the GI50 in the assay on DLD-1 was 66.7 µM (inactive); in the assay with DMS-114 it was 47.5 µM (inactive); in the assay on DMS-273, 37.8 µM (inactive); with KM-20L2, 63.8 µM (inactive); in the assay with LXFL 529, 49.5 µM (inactive); in the assay on M19-MEL, 55.5 µM (inactive). Also, the figures for the GI50 in the assay on RXF 631 and with XF498 were > 100 µM (inactive) and 59.6 µM (inactive), respectively.
For the compound `O=C(NC1CCCCC1)c1c(O)[nH]c(=S)[nH]c1=O`, the GI50 in the assay on DLD-1 was > 100 µM (inactive); in the assay with DMS-114 it was 88.5 µM (inactive); in the assay with HOP-18, > 100 µM (inactive); with KM-20L2 it was > 100 µM (inactive); with LXFL 529, > 100 µM (inactive); in the assay on M19-MEL, > 100 µM (inactive). For the same compound, in the assay on RXF 631, the GI50 is > 100 µM (inactive).
In the case of `COc1cc(C(=O)C/C(CCC(=O)Nc2ccc(Cl)cc2C)=N/NC(=O)C(N)=O)ccc1O`, the GI50 with DLD-1, in the assay on DMS-114, in the assay on DMS-273, with HOP-18, in the assay on KM-20L2 and in the assay with LXFL 529 was > 100 µM (inactive) throughout. For the same compound, the GI50 in the assay with M19-MEL and in the assay on XF498 was > 100 µM (inactive) throughout.
As to `CCOc1ccc2c(c1)[n+]([O-])c(-c1ccc([N+](=O)[O-])cc1)c(N)[n+]2[O-]`, the GI50 in the assay on DLD-1 is > 100 µM (inactive); with DMS-114, 29.6 µM (inactive); in the assay on DMS-273, > 100 µM (inactive); with HOP-18 it was > 100 µM (inactive); in the assay with KM-20L2 it was > 100 µM (inactive); with LXFL 529, > 100 µM (inactive). In addition, the GI50 in the assay with M19-MEL and in the assay with RXF 631 was > 100 µM (inactive) throughout.
On to `CCCCn1c(-c2ccccc2)cs/c1=N\NC(=O)Cn1c(C)nc2ccccc21`, for which the GI50 was > 100 µM (inactive) in the assay on DLD-1; 76 µM (inactive) with DMS-273; > 100 µM (inactive) with HOP-18; 84.9 µM (inactive) in the assay with KM-20L2; 25.1 µM (inactive) in the assay with LXFL 529; 30.4 µM (inactive) in the assay with M19-MEL. Besides, the GI50 in the assay with XF498 was 31.9 µM (inactive).
Take `CNC(=O)OCc1cc2ccncc2c2c1[nH]c1ccccc12`: the GI50 in the assay on DLD-1 was 5.89 µM (inactive); with DMS-114, > 100 µM (inactive); in the assay on DMS-273, > 100 µM (inactive); with HOP-18 it was > 100 µM (inactive); with KM-20L2, > 100 µM (inactive); in the assay with LXFL 529, > 39.6 µM (inactive). Further, the GI50 was > 100 µM (inactive) in the assay with M19-MEL and > 45.1 µM (inactive) in the assay on XF498.
In the case of `CC(C)(C)OC(=O)NC1CCC[C@H]1O` (stereo partly drawn), the GI50 in the assay with DLD-1, in the assay on DMS-114, in the assay on DMS-273, in the assay with KM-20L2, with LXFL 529 and in the assay on M19-MEL was > 100 µM (inactive) in each case. Besides, the GI50 in the assay on RXF 631 and with XF498 was > 100 µM (inactive) each time.
Regarding `COC(=O)CC1CCN(C#N)CC1CC[N+](=O)[O-]` (stereo not drawn), the GI50 with DLD-1, in the assay with DMS-114, with DMS-273, in the assay with HOP-18, with KM-20L2 and in the assay on LXFL 529 was > 100 µM (inactive) throughout. The GI50 in the assay on M19-MEL and in the assay with RXF 631 was > 100 µM (inactive) throughout.
For the compound `CCOC(=O)c1ccc(N[C@@H]2c3cc4c(cc3C(C3=CC(=O)C(=O)C(OC)=C3)[C@H]3C(=O)OCC32)OCO4)cc1` (stereo partly drawn), the GI50 is 1.79 µM (inactive) in the assay on DMS-114; 1.12 µM (inactive) in the assay with DMS-273; 6.37 µM (inactive) in the assay with KM-20L2; 6.5 µM (inactive) in the assay with LXFL 529; 6.1 µM (inactive) with M19-MEL; 1.91 µM (inactive) in the assay with RXF 631. In addition, in the assay on XF498, the GI50 is 1.48 µM (inactive).
